Marks after values point to notes of the source that are not given here.
Assays:
[1] = Study 1 hematology (complete blood count); type: in vivo, human
Protocol: (§1) Study 1 design. For study 1 the subjects reported to the laboratory in the morning following an overnight fast. Before ingestion of one of the supplemental treatments, a flexible sterile polyethylene catheter was inserted into a forearm vein using sterile procedures and a pre-ingestion blood sample was drawn. Subsequent blood samples were taken at 0, 2, 5, 10, 15, 25, 35, 45, 60, 90, 120 and 180 min after ingestion of the treatment. Plasma was separated and samples were stored frozen at −70° C. for analysis of HMB concentration. In addition, a portion of the pre-ingestion and 180 minute blood samples were used for measurements (LabCorp, Kansas City, Mo.) of glucose, uric acid, blood urea nitrogen (BUN), creatinine, sodium, potassium, chloride, carbon dioxide, phosphorous, protein, albumin, globulin, albumin:globulin ratio, total bilirubin, direct bilirubin, alkaline phosphatase, lactate dehydrogenase, aspartate aminotransferase (AST), alanine aminotransferase (ALT), gamma-glutamyl transpeptidase (GGT), iron binding capacity (TIBC), unsaturated iron binding capacity (UIBC), iron, iron saturation, total cholesterol, triglycerides, high density lipoprotein (HDL), low density lipoprotein (LDL), and cholesterol ratio. A complete blood count (CBC) was also performed before and after the 180 min treatment period. Subjects also completed a brief questionnaire to report any physical symptoms (such as nausea, headache, etc) they may have experienced during the experiment.
The data were analyzed using a crossover design with Proc GLM in SAS. (45) For the timed sampling of plasma HMB a repeated measures polynomial model was used. The model included subject, order, and treatment main effects and time by treatment interaction where appropriate. For other parameters Proc GLM was also used with subject, order, and treatment main effects and the p values are reported for the treatment main effect. Statistical significance was determined for p<0.05 and a trend was determined for 0.05<p<0.10.

[2] = Study 1: plasma HMB after a single dose, sampled to 180 min; type: in vivo, human; details: for Cpeak (peak plasma HMB concentration): single dose 1 g CaHMB or 0.80 g free acid
Description: Human subjects. In study 1, four male and four female college-aged subjects were studied. In study 2, an additional four male and four female college-aged subjects were studied. The protocols for both studies were approved by the Iowa State University IRB and each subject gave informed consent to participate in the study. Due to the nature of the treatments, neither the subjects nor the researchers could be blinded.
Treatments. The same treatments were given to the subjects in both study groups. The three treatments were given in random order to each subject with at least a one week washout period between treatments. The treatments were supplied by Metabolic Technologies, Inc. (MTI, Ames, Iowa) and were prepared with food grade ingredients. One gram of CaHMB or the equivalent HMB in free acid in a gel form was administered to the subjects. The CaHMB capsules were obtained from a commercial supplement manufacturer (Optimum Nutrition, Aurora, Ill.) while the HMB-acid gel was prepared at MTI laboratories. Briefly, the HMB-acid was adjusted to a pH 4.5 with potassium carbonate (K2CO3) and flavors and sweeteners were then added. The 1.0 g CaHMB capsule was taken with 355 mL of water (approx. 12 oz.). The free acid gel dosage was 0.80 g and was equivalent to the free acid contained in the CaHMB in the capsule. The free acid gel treatments were either swallowed (FASW) or held sublingual for 15 seconds and then swallowed (FASL). FASW consisted of expelling the entire dose into the mouth in a 3 ml syringe, swallowing, and then following this with 355 mL of water. FASL subjects were instructed to place the entire dosage under the tongue and hold the dosage for 15 sec before swallowing. They then rinsed and followed the dose with 355 mL of water.
as §1
HMB analysis. Plasma and urine HMB were analyzed by gas chromatography/mass spectrometry (GC/MS) as previously described.(27)
Calculations and statistics. Areas under the curves were calculated for each subject using the trapezoidal method that sums the area above baseline.(51) Half-life of plasma HMB was calculated for study 2. The following equations were used: […]
The data were analyzed using a crossover design with Proc GLM in SAS. (45) For the timed sampling of plasma HMB a repeated measures polynomial model was used. The model included subject, order, and treatment main effects and time by treatment interaction where appropriate. […]

[3] = listed as Free Acid Gel Swallow

CC(C)(O)CC(=O)O [HMB-Acid Gel Swallow, 3-hydroxy-3-methylbutyric acid]
Basophils (absolute) ([1]; After (180 min)): 0.04 ± 0.02 ×10^3/μL | Basophils, % ([1]; After (180 min)): 0.4 ± 0.2% | Eosinophils (absolute) ([1]; After (180 min)): 0.1 ± 0.02 ×10^3/μL | Eosinophils, % ([1]; After (180 min)): 2.4 ± 0.4% | Hematocrit ([1]; After (180 min)): 37.6 ± 1.5% | Hemoglobin ([1]; After (180 min)): 13.0 ± 0.5 g/dL | Lymphocytes (absolute) ([1]; After (180 min)): 2.2 ± 0.1 ×10^3/μL | Lymphocytes, % ([1]; After (180 min)): 37.4 ± 1.9% | MCH ([1]; After (180 min)): 31.4 ± 0.8 pg | MCHC ([1]; After (180 min)): 34.6 ± 0.3 g/dL | MCV ([1]; After (180 min)): 90.0 ± 1.5 fL | Monocytes (absolute) ([1]; After (180 min)): 0.5 ± 0.04 ×10^3/μL | Monocytes, % ([1]; After (180 min)): 7.0 ± 0.6% | Neutrophils (absolute) ([1]; After (180 min)): 3.3 ± 0.2 ×10^3/μL | Neutrophils, % ([1]; After (180 min)): 52.9 ± 2.2% | Platelets ([1]; After (180 min)): 202.4 ± 25. ×10^3/μL | RBC ([1]; After (180 min)): 4.2 ± 0.2 ×10^6/µL | RDW ([1]; After (180 min)): 13.2 ± 0.3% | WBC ([1]; After (180 min)): 6.1 ± 0.3 ×10^3/μL | Basophils (absolute) ([1]; Before): 0.01 ± 0.01^a ×10^3/μL | Basophils, % ([1]; Before): 0.1 ± 0.1^a % | Eosinophils (absolute) ([1]; Before): 0.2 ± 0.04 ×10^3/μL | Eosinophils, % ([1]; Before): 2.5 ± 0.3% | Hematocrit ([1]; Before): 37.6 ± 1.6% | Hemoglobin ([1]; Before): 13.1 ± 0.5 g/dL | Lymphocytes (absolute) ([1]; Before): 3.1 ± 0.3 ×10^3/μL | Lymphocytes, % ([1]; Before): 43.8 ± 2.8% | MCH ([1]; Before): 31.2 ± 0.7 pg | MCHC ([1]; Before): 34.7 ± 0.3 g/dL | MCV ([1]; Before): 90.1 ± 1.3 fL | Monocytes (absolute) ([1]; Before): 0.5 ± 0.1 ×10^3/μL | Monocytes, % ([1]; Before): 7.6 ± 0.7% | Neutrophils (absolute) ([1]; Before): 3.0 ± 0.2 ×10^3/μL | Neutrophils, % ([1]; Before): 46.0 ± 2.8% | Platelets ([1]; Before): 195.0 ± 31.5 ×10^3/μL | RBC ([1]; Before): 4.2 ± 0.2 ×10^6/µL | RDW ([1]; Before): 13.2 ± 0.2% | WBC ([1]; Before): 6.7 ± 0.5 ×10^3/μL | Basophils (absolute) % Change ([1]; Before to After): 200.0% | Basophils, % - % Change ([1]; Before to After): 200.0% | Eosinophils (absolute) % Change ([1]; Before to After): −41.2% | Eosinophils, % - % Change ([1]; Before to After): −5.0% | Hematocrit % Change ([1]; Before to After): −0.1% | Hemoglobin % Change ([1]; Before to After): −0.4% | Lymphocytes (absolute) % Change ([1]; Before to After): −29.1% | Lymphocytes, % - % Change ([1]; Before to After): −14.6% | MCH % Change ([1]; Before to After): 0.7% | MCHC % Change ([1]; Before to After): −0.3% | MCV % Change ([1]; Before to After): −0.1% | Monocytes (absolute) % Change ([1]; Before to After): −7.7% | Monocytes, % - % Change ([1]; Before to After): −8.2% | Neutrophils (absolute) % Change ([1]; Before to After): 10.9% | Neutrophils, % - % Change ([1]; Before to After): 14.9% | Platelets % Change ([1]; Before to After): 3.8% | RBC % Change ([1]; Before to After): 0.1% | RDW % Change ([1]; Before to After): 0.4% | WBC % Change ([1]; Before to After): −10.2% | decrease in absolute lymphocyte numbers over the measurement period ([1]; p<0.04): significantly greater decrease | greater area under the curve (AUC) than CaHMB ([2]; 180 min, listed as FASW): 97% | AUC plasma HMB ([2]; 180 min, listed as Free Acid Gel Swallow): 27,532 ± 1,742 nmol/180 min | tpeak (time to reach peak plasma concentration) ([2]; listed as FASW): 33.1 ± 4.6 min | tpeak (time to reach peak plasma concentration) [2, 3]: 33.1 ± 4.6 min | Cpeak (peak plasma HMB concentration) ([2]; listed as FASW): 259 ± 24 nmol/mL | Cpeak (peak plasma HMB concentration) [2, 3]: 259.1 ± 23.9 nmol/mL

— patent US20210113501A1, “METHOD OF ADMINISTERING BETA-HYDROXY-BETA-METHYLBUTYRATE (HMB)” (Metabolic Technologies, Inc., priority 2009, published 2021)
